Experimental data: patent US8420336B2, “Method of bioassaying yokukansan” (priority 2008, dated 2013)
Read-outs that look alike come from different tables or passages of the source.

Assays:
[1] = molecular target: glutamate binding site of NMDA receptors; assay: Binding test for test drug to glutamate binding site of NMDA receptors ([3H]CGP-39653 competition); parameters: species or system Wistar rat; details: labeled ligand of the assay; listed among the conditions
Description: (§1) 20 mg of a test drug (TJ-54 or an extract of the constituent crude drug) was weighed. Distilled water was added to the test drug so as to give a concentration of 20 mg/125 μL (20 mg/100 μL for the extract of the constituent crude drug), and further the resulting solution was diluted to 2-fold with DMSO, which was used as a stock solution. This stock solution was diluted to have each concentration.
(4) Binding Test for Test Drug to Glutamate Binding Site of NMDA Receptors
20 mL/g of 50 mM Tris-HCl buffer was added to the cerebral cortex tissue collected from a Wistar rat. The resulting mixture was homogenized, and the homogenate was centrifuged (1,000×g for 10 minutes at 4° C.). […]
After completion of the incubation, the mixture was filtered through a glass fiber filter (Whatman 1821-915 GF/B, Whatman) using a cell harvester (Brandel MLR-48, Skatron micro-96, Perkin Elmer), and the filter was washed 3 to 6 times with 50 mM Tris-HCl buffer. Then, the radioactivity of [^3H]CGP-39653 on the glass fiber filter was measured using a liquid scintillation counter (Wallac Counter, Perkin Elmer). As for the nonspecific binding, the radioactivity of [^3H]CGP-39653 in the presence of 1000 μM unlabeled L-glutamate was measured. As for the total binding, the radioactivity of [^3H]CGP-39653 in the absence of the test drug was measured. […]

human recombinant mGluR5 = molecular target: T1, human recombinant mGluR5 (Homo sapiens, UniProt P41594); assay: Binding test for test drug to metabotropic glutamate receptor mGluR5 ([3H]quisqualic acid competition); details: labeled ligand of the assay; listed among the conditions
T1 construct: purchased Perkin Elmer; host or cells: CHO-K1 cell membranes
T1 sequence (P41594 21-1212): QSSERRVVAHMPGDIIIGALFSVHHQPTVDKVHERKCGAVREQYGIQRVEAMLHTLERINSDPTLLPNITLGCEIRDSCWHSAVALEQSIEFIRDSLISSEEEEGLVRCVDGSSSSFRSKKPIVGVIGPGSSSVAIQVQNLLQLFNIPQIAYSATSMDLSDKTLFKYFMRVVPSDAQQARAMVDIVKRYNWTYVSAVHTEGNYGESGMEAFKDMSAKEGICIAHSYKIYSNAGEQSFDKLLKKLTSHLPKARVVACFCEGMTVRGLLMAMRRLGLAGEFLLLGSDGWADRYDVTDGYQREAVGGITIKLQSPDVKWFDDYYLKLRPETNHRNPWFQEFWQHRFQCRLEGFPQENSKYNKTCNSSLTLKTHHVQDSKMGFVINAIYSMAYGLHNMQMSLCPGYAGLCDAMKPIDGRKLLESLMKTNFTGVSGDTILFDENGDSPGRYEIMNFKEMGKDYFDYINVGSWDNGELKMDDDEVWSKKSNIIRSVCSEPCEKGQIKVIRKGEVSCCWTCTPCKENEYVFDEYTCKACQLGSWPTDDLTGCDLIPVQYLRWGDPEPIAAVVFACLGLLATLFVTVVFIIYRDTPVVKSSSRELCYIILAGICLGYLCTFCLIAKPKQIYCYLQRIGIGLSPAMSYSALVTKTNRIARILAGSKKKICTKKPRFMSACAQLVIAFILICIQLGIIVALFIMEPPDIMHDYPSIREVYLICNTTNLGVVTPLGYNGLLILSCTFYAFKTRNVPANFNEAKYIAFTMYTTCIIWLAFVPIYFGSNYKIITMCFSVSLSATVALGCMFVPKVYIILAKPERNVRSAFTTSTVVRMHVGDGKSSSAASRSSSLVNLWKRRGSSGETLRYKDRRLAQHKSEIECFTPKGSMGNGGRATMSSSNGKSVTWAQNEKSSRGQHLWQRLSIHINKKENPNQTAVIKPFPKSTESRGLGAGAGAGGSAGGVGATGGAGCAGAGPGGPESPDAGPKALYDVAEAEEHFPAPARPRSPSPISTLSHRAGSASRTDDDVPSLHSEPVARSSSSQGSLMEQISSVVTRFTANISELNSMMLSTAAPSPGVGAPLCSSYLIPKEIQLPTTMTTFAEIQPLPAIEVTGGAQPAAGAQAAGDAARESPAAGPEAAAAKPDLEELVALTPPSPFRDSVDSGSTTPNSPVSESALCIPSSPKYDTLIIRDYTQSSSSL
Description: (6) Binding Test for Test Drug to Metabotropic Glutamate Receptor mGluR5
30 μg protein/100 μL of a CHO-K1 cell membrane solution, 20 μL of [^3H]quisqualic acid (final concentration: 0.03 μM) and 1.1 μL of the test drug solution of each concentration were added to a 1 mL tube, and the resulting mixture was incubated at 25° C. for 2 hours. In the control group, a DMSO solution (final concentration: 0.5%) was added, and the resulting mixture was incubated in the same manner.
After completion of the incubation, the mixture was filtered through a glass fiber filter (Whatman 1821-915 GF/B, Whatman) using a cell harvester (Micro 96 FilterMate, Perkin Elmer), and the filter was washed 6 times with 20 mM HEPES buffer. Then, the radioactivity of [^3H]quisqualic acid on the glass fiber filter was measured using a liquid scintillation counter (Wallac Counter). As for the nonspecific binding, the radioactivity of [^3H]quisqualic acid in the presence of 1000 μM unlabeled L-glutamate was measured. As for the total binding, the radioactivity of [^3H]quisqualic acid in the absence of the test drug was measured. The binding activity of the test drug was evaluated on the basis of the binding inhibition ratio obtained from the above formula.
The respective conditions in this experiment are as follows. […]

AMPA receptors = assay: Binding test for test drug to AMPA receptors ([3H]AMPA competition); parameters: species or system Wistar rat; details: labeled ligand of the assay, listed among the conditions
Description: as §1
(2) Binding Test for Test Drug to AMPA Receptors
20 mL/g of 50 mM Tris-HCl buffer (containing 200 mM KSCN) was added to the cerebral cortex tissue collected from a Wistar rat. […]
(§2) After completion of the incubation, the mixture was filtered through a glass fiber filter (Whatman 1821-915 GF/B, Whatman) using a cell harvester (Brandel MLR-48, Skatron micro-96, Perkin Elmer), and the filter was washed 3 to 6 times with 50 mM Tris-HCl buffer. Then, the radioactivity of [^3H]AMPA on the glass fiber filter was measured using a liquid scintillation counter (Wallac Counter, Perkin Elmer). As for the nonspecific binding, the radioactivity of [^3H]AMPA in the presence of 1000 μM unlabeled L-glutamate was measured. As for the total binding, the radioactivity of [^3H]AMPA in the absence of the test drug was measured. The binding activity of the test drug was evaluated on the basis of the binding inhibition ratio obtained from the above formula. […]

[2] = molecular target: T2, glycine binding site of NMDA receptors (Rattus norvegicus, UniProt P35439); assay: Binding test for test drug to glycine binding site of NMDA receptors ([3H]MDL-105519 competition); parameters: species or system Wistar rat; details: labeled ligand of the assay; listed among the conditions
T2 construct: cerebral cortex tissue collected from a Wistar rat; from tissue; host or cells: cerebral cortex of Wistar rat, membrane fraction
Description: 20 mL/g of 50 mM HEPES buffer was added to the cerebral cortex tissue collected from a Wistar rat. The resulting mixture was homogenized, and the homogenate was centrifuged (1,000×g for 10 minutes at 4° C.). Then, the resulting supernatant was collected and centrifuged (20,000×g for 20 minutes at 4° C.) to obtain a pellet. The pellet was resuspended in a buffer and the suspension was centrifuged (8,000×g for 20 minutes at 4° C.). Further, the resulting supernatant was collected and centrifuged (48,000×g for 20 minutes at 4° C.) to obtain a pellet. […]
After completion of the incubation, the mixture was filtered through a glass fiber filter (Whatman 1821-915 GF/B, Whatman) using a cell harvester (Brandel MLR-48, Skatron micro-96, Perkin Elmer), and the filter was washed 3 to 6 times with 50 mM HEPES buffer. Then, the radioactivity of [^3H]MDL-105519 on the glass fiber filter was measured using a liquid scintillation counter (Wallac Counter, Perkin Elmer). As for the nonspecific binding, the radioactivity of [^3H]MDL-105519 in the presence of 10 μM unlabeled MDL-105519 was measured. As for the total binding, the radioactivity of [^3H]MDL-105519 in the absence of the test drug was measured. The binding activity of the test drug was evaluated on the basis of the binding inhibition ratio obtained from the above formula. […]

glutamate receptors = assay: Non-selective binding test for test drug to glutamate receptors ([3H]L-glutamate competition); parameters: species or system Wistar rat; details: labeled ligand of the assay; listed among the conditions of the experiment
Description: as §1
(1) Non-Selective Binding Test for Test Drug to Glutamate Receptors
20 mL/g of 50 mM Tris-HCl buffer was added to the brain tissue collected from a Wistar rat. […]
as §2, with “[^3H]L-glutamate” for “[^3H]AMPA”, “50” for “1000”, “calculated from” for “evaluated on”, “following” for “basis of the”, “(%).” for “obtained from the above formula.”

kainate receptors = assay: Binding test for test drug to kainate receptors ([3H]kainic acid competition); parameters: species or system Wistar rat; details: labeled ligand of the assay; listed among the conditions
Description: as §1
(3) Binding Test for Test Drug to Kainate Receptors
20 mL/g of 50 mM Tris-HCl buffer was added to the brain tissue excluding the cerebellum tissue collected from a Wistar rat. The resulting mixture was homogenized, and centrifugation (48,000×g for 15 minutes at 4° C.) of the homogenate was repeated three times to obtain a membrane fraction. […]
Then, the radioactivity of [^3H]kainic acid on the glass fiber filter was measured using a liquid scintillation counter (Wallac Counter, Perkin Elmer). As for the nonspecific binding, the radioactivity of [^3H]kainic acid in the presence of 1000 μM unlabeled L-glutamate was measured. As for the total binding, the radioactivity of [^3H]kainic acid in the absence of the test drug was measured. The binding activity of the test drug was evaluated on the basis of the binding inhibition ratio obtained from the above formula. […]

`CCCC(=CC(N)C(=O)O)CP(=O)(O)O` (stereo not shown) [[^3H]CGP-39653] was tested, and the Kd [1] was 19 nM.

With `N[C@@H](Cn1oc(=O)[nH]c1=O)C(=O)O` [[^3H]quisqualic acid, quisqualic acid] the Kd (human recombinant mGluR5) was 26 nM.

For `Cc1onc(O)c1CC(N)C(=O)O` (stereo not drawn) [[^3H]AMPA, α-amino-3-hydroxy-5-methyl-4-isoxazolepropionate], the Kd (AMPA receptors; Kd1, read-out: Kd (Kd1)) was 18 nM and the Kd (AMPA receptors; Kd2, read-out: Kd (Kd2)) was 990 nM.

`O=C(O)C(=Cc1c(C(=O)O)[nH]c2cc(Cl)cc(Cl)c12)c1ccccc1` [[^3H]MDL-105519] gave a Kd [2] of 6 nM.

For `N[C@@H](CCC(=O)O)C(=O)O` [[^3H]L-glutamate, L-glutamate], the Kd (glutamate receptors) was 293 nM.

In the case of `C=C(C)[C@H]1CN[C@H](C(=O)O)[C@H]1CC(=O)O` [[^3H]kainic acid, kainic acid], the Kd (kainate receptors) is reported as 12 nM.
